Test results taken from ChEMBL document CHEMBL3507680, “University of Dundee, Gates Library screen for HepG2 cell viability”.

Test: Human HepG2 cell viability assay in 384 well format
Type: toxicity, cell-based
Design: dose 125 nL, time 70.5 hour; cytotoxicity at 70.5 h: concentration not given beside the values
Conditions: HepG2 cells, read-out: Inhibition

| SMILES | cytotoxicity at 70.5 h [%] |
| --- | --- |
| CCNc1nnc(CCn2nc(C)c(Br)c2C)s1 | -7.99 |
| Cc1noc(C)c1CN1CC[C@H]2OCC[C@@H](C(=O)N3CCCO3)[C@H]2C1 | -2.47 |
| CNC(=O)c1cc2c(nc1NCC1CC1)CCNCC2 | 4.29 |
| CCN(C)c1ncnc2c1CCN(C(=O)N1CCOCC1)CC2 | 6.06 |
| COc1ccc(S(=O)(=O)N2CCn3cnc(COCC4CC4)c3C2)cc1 | 10.3 |
| CN1C(=O)C(c2cccnc2)CC12CCN(C(=O)c1ccc[nH]1)CC2 (stereo not drawn) | 15.4 |
| CCOCc1ncn2c1CN(S(=O)(=O)c1ccc(OC)cc1)CC2 | -9.1 |
| COCc1ncn2c1CN(S(=O)(=O)c1ccc(C)cc1)CC2 | -0.994 |
| CCOCc1ncn2c1CN(S(=O)(=O)c1ccc(C)cc1)CC2 | 35.9 |
| Cc1cccc(CO[C@@H]2C[C@H]3CN(C(=O)c4cnccn4)CCN3C2)n1 | -8.15 |
| CC(C)(C)C(=O)N1C[C@@H]2COC[C@]2(c2nnc(C3CC3)o2)C1 | -8.33 |
| Cc1cnc(CNC(=O)[C@@H]2CC[C@@H]3[C@@H](CCN3Cc3ccco3)O2)cn1 | -11.9 |
| Cc1cc(C(=O)N2C[C@@H]3COC[C@]3(c3nnc(C)o3)C2)on1 | -11.2 |
| O=C(Nc1ccccc1)C1CN(Cc2cccs2)CC12CCOCC2 (stereo not drawn) | -6.1 |
| Cc1ccc(C(=O)N2CC[C@H]3O[C@@H](c4noc(C)n4)C[C@H]3C2)o1 | -8.48 |
| Cc1nc([C@H]2C[C@H]3CN(C(=O)c4ccoc4C)CC[C@@H]3O2)no1 | -7.31 |
| Cc1ccc(C(=O)N2CCc3ncnc(C)c3CC2)cc1F | 6.96 |
| Cc1ccc(N2CCCc3sc(C(=O)NCc4ccc(C)o4)nc32)nn1 | -6.21 |
| Cc1ncnc2c1CCN(C(=O)c1cccc(F)c1)CC2 | -5.99 |
| Cc1noc(C)c1CN1CC2(CCN(C(=O)c3ccoc3C)C2)CC1=O (stereo not drawn) | -6.54 |
| O=C(c1ccccc1)N1CCC2(CC1)CC(Oc1ccccc1)CO2 (stereo not drawn) | -11.5 |
| Cc1ncnc2c1CCN(C(=O)c1ccnnc1)CC2 | -2.5 |
| Cn1nnc2c1C(COCC1CC1)CN(C(=O)Cc1ccccn1)C2 (stereo not drawn) | -2.19 |

| SMILES | cytotoxicity at 70.5 h [%] |
| --- | --- |
| Fc1cnc(N2CCCC3(CCN(c4ncccn4)C3)C2)nc1 (stereo not drawn) | 13.7 |
| CN(c1ccccc1C(=O)O)S(=O)(=O)c1cccc2cccnc12 | -6.45 |
| Cc1cc(C(F)(F)F)nn1CCCNC(=O)C1CCCC1 | -1.45 |
| CN1CCN(C(=O)Cn2nc(C(F)(F)F)c(Br)c2C2CC2)CC1 | -10.9 |
| O=C(c1ccc(Cn2cc(Br)cn2)cc1)N1CCOCC1 | -7.67 |
| CN1CCN(C(=O)c2ccc(Cn3cc(Br)cn3)cc2)CC1 | -5.22 |
| CCCN1CCN(C(=O)c2ccc(Cn3cc(Br)cn3)cc2)CC1 | -7.06 |
| CCOCCCNC(=O)c1nn(CC)cc1Br | 25.1 |
| O=C(c1ccn(COc2ccc(F)cc2)n1)N1CCCC1 | -7.86 |
| CC(C(=O)Nc1ccccn1)n1ccc(C(F)(F)F)n1 (stereo not drawn) | -15.3 |
| Cc1cccc(NC(=O)C(C)Oc2ccc3c(c2)OCO3)n1 (stereo not drawn) | -3.5 |
| Cc1nn(CC(=O)N2CCN(c3ccc(F)cc3)CC2)c(C)c1Cl | 26.3 |
| COc1ccc(N2CCN(C(=O)Cn3nc(C)c(Cl)c3C)CC2)cc1 | 4.1 |
| CCS(=O)(=O)Nc1ccc2oc(C)c(C(C)=O)c2c1 | 28.3 |
| CC/N=c1/c(NC(=O)NCCOC)c(O)oc2ccccc12 | 30.4 |
| CC/N=c1/c(NC(=O)C2CC2)c(O)oc2ccccc12 | 35.8 |
| CCCN(c1ccccc1C(=O)O)S(=O)(=O)c1cccc2cccnc12 | -10.2 |
| Cc1nn(C)cc1CN(C)C(=O)c1cccnc1 | 8.22 |
| Cc1nn(C)cc1CN(C)C(=O)c1cnccn1 | 1.11 |
| CCn1nccc1CNC(=O)C1CCC1 | -2.95 |
| CCn1nccc1CNC(=O)C1CCCCC1 | -0.635 |
| CCn1nccc1CNC(=O)C1CCCO1 (stereo not drawn) | 0.767 |
| CCn1cc(Cl)c(C(=O)NCCOC)n1 | -0.484 |

| SMILES | cytotoxicity at 70.5 h [%] |
| --- | --- |
| CC(C(=O)N1CCN(C)CC1)n1cc(Br)cn1 (stereo not drawn) | -1.37 |
| CCCN1CCN(C(=O)CCn2nc(C(F)(F)F)c(Br)c2C)CC1 | -10.4 |
| Cc1cnc(NC(=O)C(C)Oc2ccc3c(c2)OCO3)s1 (stereo not drawn) | -7.91 |
| Cc1ccc(CNC(=O)c2ccc(F)cc2)o1 | -8.9 |
| O=C(c1n[nH]cc1Br)N1CCOCC1 | -4.31 |
| CC(Cn1cc(Br)cn1)C(=O)Nc1ccc(Cl)cn1 (stereo not drawn) | 4.53 |
| CCn1cc(Cl)c(C(=O)NCc2cnn(C)c2)n1 | -0.0278 |
| CN(C)C(=O)c1ccn(COc2ccccc2Cl)n1 | -2.41 |
| Cc1ccc(F)cc1NC(=O)c1[nH]ncc1Br | -7.98 |
| CCn1cc(Br)c(C(=O)NCc2ccccc2)n1 | 1.89 |
| CCn1nc(C)cc1NC(=O)CCn1nc(C)c(Br)c1C | 10.2 |
| Cc1ccc(NC(=O)CCc2cnn(C)c2)cc1F | -8.37 |
| CCOc1ccc(NC(C)=O)cc1S(=O)(=O)Nc1nccs1 | 22.7 |
| CCOc1ccc(NC(C)=O)cc1S(=O)(=O)Nc1cc(C)on1 | -6.08 |
| Cc1cc(C)n(C2=NC(NCCCO)c3c(sc4c3CCCC4)N2)n1 (stereo not drawn) | -11.9 |
| COc1cccc(NC(=O)C(C)Cn2cc(Cl)cn2)c1 (stereo not drawn) | -7.91 |
| Nc1nnnn1NCc1cccc(Cl)c1Cl | 21.9 |
| CCC1(CC)C(=O)NC(=O)N=C1Nc1ccc(C)cc1 | -10.3 |
| CCn1cc(NS(=O)(=O)c2ccc(Br)s2)c(C(N)=O)n1 | 21.8 |
| CC1CCC(NC(=O)c2nn(C)cc2Br)CC1 (stereo not drawn) | -7.64 |
| CCn1cc(S(=O)(=O)N2CCN(S(=O)(=O)c3ccc(Br)s3)CC2)c(C)n1 | -9.33 |
| CS(=O)(=O)Nc1ccn(Cc2cccc(Cl)c2)n1 | -4.43 |
| Cc1nn(CCCNC(=O)C2CCN(S(C)(=O)=O)CC2)c(Cl)c1Cl | -7.28 |

| SMILES | cytotoxicity at 70.5 h [%] |
| --- | --- |
| O=C1[C@H]2CCCC[C@H]2C(=O)N1c1cnn(Cc2cccc(F)c2)c1 | 1.76 |
| O=C(O)CCn1nc(C(F)(F)F)c(Cl)c1C1CC1 | -19.2 |
| Cc1nn(-c2ccccc2)c(C)c1CN1CCNCC1 | 27.3 |
| O=C(O)c1ccn(COc2c(Cl)cccc2Cl)n1 | -7.49 |
| CCn1cc(-c2cc(C(F)F)nc3sc(C(N)=O)c(N)c23)c(C)n1 | -3.39 |
| Cc1ccccc1NCc1nc2n(n1)CCCCC2 | 0.338 |
| Cc1ccc(NCc2nc3n(n2)CCCCC3)c(C)c1 | 6.51 |
| Cc1ccc(C(=O)Cc2c(Cl)nc3n(C)c(=O)n(C)c(=O)n23)cc1 | -9.41 |
| Cn1c(=O)n(C)c2nc(Cl)c(CC(=O)c3ccc(F)cc3)n2c1=O | 0.873 |
| Cc1c(Cl)cccc1NCc1nc2n(n1)CCCCC2 | -7.61 |
| Cc1ccc(Cl)cc1NCc1nc2n(n1)CCCCC2 | 7.47 |
| CCOc1ccc(N2CCCN=C2NC(=O)c2cccc(OC)c2)cc1 | 2.56 |
| CCN1CC(Oc2ccc(Cl)cc2)=NC(SCC(=O)c2ccccc2)=N1 | 12.1 |
| CN1CC(Oc2ccccc2)=NC(SCC(=O)Nc2ccc(Cl)cc2)=N1 | 0.871 |
| CCOC(=O)N1CCN(C(=O)c2cc(-c3ccc(Cl)cc3Cl)on2)CC1 | 0.435 |
| Cc1nn(C)c2c(N3CCN(C(=O)C4CC4)CC3)ncnc12 | 16.2 |
| CCC(=O)N1CCN(c2ncnc3c(C)nn(C)c23)CC1 | 15.4 |
| c1ccc(-c2ncc3c(n2)C2(CCN(CC4CC4)C2)COC3)cc1 (stereo not drawn) | 15.2 |
| Cc1ccc(O[C@@H]2C[C@H]3CN(C(=O)c4cnccn4)CCN3C2)cc1 | -4.43 |
| O=C(C1=CC2(CCN(CCO)CC2)c2ccccc21)N1CCCC1 | -4.5 |
| Cc1ccc(CN2CC(C(=O)Nc3ccccc3)C3(CCOCC3)C2)o1 (stereo not drawn) | -12.3 |
| Cn1cc(CN2CC(C(=O)Nc3ccccc3)C3(CCOCC3)C2)cn1 (stereo not drawn) | -9.91 |
| O=C(c1ccsc1)N1CCc2c(COCC3CC3)cncc2C1 | 18.9 |

| SMILES | cytotoxicity at 70.5 h [%] |
| --- | --- |
| CCOCC(=O)N1Cc2nnn(C)c2C(COCc2ccccn2)C1 (stereo not drawn) | 9.65 |
| COCC1CN(S(=O)(=O)N(C)C)Cc2cnn(CC3CCCC3)c21 (stereo not drawn) | -5.7 |
| Cc1noc(C)c1CN1CCC2(COCc3cnc(N(C)C)nc32)C1 (stereo not drawn) | -3.18 |
| CCOCC1CN(Cc2csc(C)n2)Cc2nccn2C1 (stereo not drawn) | 3.86 |
| COc1cccc(CN2CCC3(COCc4cnc(N(C)C)nc43)C2)c1 (stereo not drawn) | 1.22 |
| Cc1cccc(CN2CC[C@H]3CO[C@H](CNC(=O)N(C)C)[C@H]3C2)c1 | -3.19 |
| CN(C)C(=O)N1CCC(c2nc3ccc(N4CCCC4)cn3n2)CC1 | -4.23 |
| Cc1nnc(N2C[C@H](OCC3CCCC3)[C@H]3OCCC[C@H]32)s1 | -5.71 |
| COc1ccc(CN2CC[C@H]3[C@H](CO[C@H]3CNC(=O)N(C)C)C2)cc1 | -0.91 |
| Cc1ccc(CN2CCOC3(COCCN(S(C)(=O)=O)C3)C2)s1 (stereo not drawn) | -6.35 |
| Cc1nnc(N2C[C@@H](OCC3CCCC3)[C@H]3OCCC[C@H]32)s1 | -5.21 |
| Cc1ccc(N2CCCc3sc(C(=O)NCCC#N)nc32)nn1 | -4.91 |
| CN(C)C(=O)NCc1cc(=O)n2c(n1)CN(Cc1ccoc1)CCC2 | 16.4 |
| CC(C)N(C)Cc1n[nH]c2c1CCN(C(=O)c1ccc[nH]1)C2 | 21 |
| CCN(C)c1ncnc2c1CCN(C(=O)c1ccccn1)CC2 | 17.4 |
| O=C(NCc1ccco1)[C@H]1CC[C@@H]2[C@@H](CCN2Cc2cccnc2)O1 | -5.95 |
| CS(=O)(=O)N1CCOCC2(CN(Cc3ccccn3)CCO2)C1 (stereo not drawn) | -5.98 |
| Cc1nc(CN2Cc3nccn3CC(CN3CCCC3)C2)cs1 (stereo not drawn) | -3.82 |
| Cc1nc(CN2Cc3nccn3CC(CN3CCOCC3)C2)cs1 (stereo not drawn) | -2.85 |
| Cc1nnc(N2CCO[C@H]3[C@@H](OCc4ccccn4)CC[C@@H]32)s1 | -2.28 |
| Cc1cnc(NS(=O)(=O)c2ccccc2)s1 | -10 |
